Measured values from patent publication US4902698A, “Benzenesulphonamidopyridyl compounds which are useful as thromboxane A 2” (Smith Kline & French Laboratories Limited, priority 1988, dated 1990).

Biological target: T1, TXA2 receptors (Homo sapiens, UniProt P21731)
T1 construct: endogenous in cells; host or cells: human platelets
T1 sequence (P21731 1-343): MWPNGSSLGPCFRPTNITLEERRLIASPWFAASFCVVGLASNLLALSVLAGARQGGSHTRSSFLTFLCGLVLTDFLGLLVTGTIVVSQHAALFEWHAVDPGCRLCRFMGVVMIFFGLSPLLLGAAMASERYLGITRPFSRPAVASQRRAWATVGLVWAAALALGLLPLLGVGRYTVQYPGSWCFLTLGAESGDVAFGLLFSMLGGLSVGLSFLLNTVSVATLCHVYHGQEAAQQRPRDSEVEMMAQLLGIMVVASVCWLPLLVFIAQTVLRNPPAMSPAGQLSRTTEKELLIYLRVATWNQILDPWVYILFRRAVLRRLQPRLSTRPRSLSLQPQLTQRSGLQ
Experiment: human platelet binding assay ([125I]PTA-OH as receptor ligand)
Details: 50% inhibition of specific [^125 I]PTA-OH binding, human platelets
Protocol: As indicated above, compounds of the formula (I) have biological activity that is indicative of an ability to antagonise TXA2 receptors.
The platelet binding assay used was essentially the method described by Mais et al. J. Pharm. Exp. Ther., 1985, 235(3), 729-734 where [^125 I]PTA-OH was used as the receptor ligand.
The IC50 values represent the concentration which produces a 50% inhibition of specific [^125 I]PTA-OH binding.
The compounds of Examples 1 and 5 were tested in the human platelet binding assay.

Row | Structure (SMILES) | IC50
1 | O=C(O)CCCc1ccc(NS(=O)(=O)c2ccccc2)cn1 [Example 1, 4-(5-Benzenesulphonamidopyrid-2-yl)butanoic acid] | 1300 nM
2 | O=C(O)CCc1ccc(NS(=O)(=O)c2ccc(Cl)cc2)cn1 [Example 8, 3-[5-(4-Chlorobenzenesulphonamido)pyrid-2-yl]propionic acid] | 251000 nM
3 | O=C(O)CCCc1ccc(NS(=O)(=O)c2cccc(C(F)(F)F)c2)cn1 [Example 12, 4-[5-(3-Trifluoromethylbenzenesulphonamido)-pyrid-2-yl]butanoic acid] | 16000 nM
4 | Cc1ccc(S(=O)(=O)Nc2ccc(CCCC(=O)O)nc2)cc1 [Example 14, 4-[5-(4-Methylbenzenesulphonamido)pyrid-2-yl]butanoic acid] | 600 nM
5 | O=C(O)CCCc1ncccc1NS(=O)(=O)c1ccccc1 [Example 4, 4-(3-Benzenesulphonamidopyrid-2-yl)butanoic acid] | 102000 nM
6 | O=C(O)CCCc1ccc(NS(=O)(=O)c2ccc(Cl)c(Cl)c2)cn1 [Example 15, 4-[5-(3,4-Dichlorobenzenesulphonamido)pyrid-2-yl]butanoic acid] | 2100 nM
7 | O=C(O)CCCc1ccc(S(=O)(=O)Nc2ccccc2)cn1 [Example 10, 4-[5-(Phenylsulphamoyl)pyrid-2-yl)butanoic acid] | 28000 nM

Further compounds by falling IC50, results first:

Row | IC50 | Structure (SMILES)
8 | 21000 nM | O=C(O)CCCc1ccc(S(=O)(=O)Nc2ccc(Cl)cc2)cn1 [Example 9, 4-[5-(4-Chlorophenylsulphamoyl)pyrid-2-yl]-butanoic acid]
9 | 5200 nM | COc1ccc(S(=O)(=O)Nc2ccc(CCCC(=O)O)nc2)cc1 [Example 11, 4-[5-(4-Methoxybenzenesulphonamido)pyrid-2-yl]butanoic acid]
10 | 4000 nM | O=C(O)CCCCc1ccc(NS(=O)(=O)c2ccccc2)cn1 [Example 7, 5-[5-(Benzenesulphonamido)pyrid-2-yl]pentanoic acid]
11 | 2600 nM | Cc1cc(NS(=O)(=O)c2ccccc2)cnc1CCCC(=O)O [Example 3, 4-(5-Benzenesulphonamido-3-methylpyrid-2-yl)butanoic acid]
12 | 1200 nM | O=C(O)CCCc1ccc(NS(=O)(=O)c2cccc(Cl)c2)cn1 [Example 5, 4-[5-(3-Chlorobenzenesulphonamido)pyrid-2-yl]butanoic acid]
13 | 1000 nM | O=C(O)CCCCc1ccc(NS(=O)(=O)c2ccc(Cl)cc2)cn1 [Example 6, 5-[5-(4-Chlorobenzenesulphonamido)pyrid-2-yl]pentanoic acid]
14 | 360 nM | O=C(O)CCCc1ccc(NS(=O)(=O)c2ccc(Cl)cc2)cn1 [Example 2, 4-[5-(4-Chlorobenzenesulphonamido)pyrid-2-yl]-butanoic acid]
15 | 200 nM | O=C(O)CCCc1ccc(NS(=O)(=O)c2ccc(Br)cc2)cn1 [Example 13, 4-[5-(4-Bromobenzenesulphonamido)pyrid-2-yl]butanoic acid]
